From publication PMC6271273, “Chemo-Enzymatic Synthesis of Silybin and 2,3-Dehydrosilybin Dimers” (Molecules, 2014) come the findings set out here.

The nature of data set [1]: Square wave voltammetry (in situ / ex situ) at pyrolytic graphite electrode. In kind it is physicochemical. To be noted: for Oxidation potential Ep1 / Oxidation potential Ep2: SWV, vs. Ag/AgCl/3 M KCl, pH 7.4, n = 3; for Oxidation potential Ep1: ascribed to oxidation of C-20 OH; for Oxidation potential Ep2: oxidation of resorcinol moiety (ring A). The procedure:
The monomeric flavonolignans and their dimers were analyzed using in situ voltammetry with the working electrode (PGE: pyrolytic graphite electrode) dipped in the supporting electrolyte containing the analytes and/or ex situ voltammetric analysis (adsorptive transfer, AdT technique). For this purpose, the PGE was first dipped into a 5 µL aliquot of the studied sample. After an accumulation period (30 s), the electrode was washed with deionized water and placed in an electrochemical cell containing pure supporting electrolyte. Square-wave voltammetry (SWV) and cyclic voltammetry (CV) were performed at room temperature with a µAutolab III analyzer (EcoChemie, Utrecht, The Netherlands) in a three-electrode setup (Ag/AgCl 3M KCl electrode as a reference and a platinum wire as the auxiliary electrode). SWV parameters: frequency: 200 Hz, from 0 V to +1.5 V, concentration of tested compounds (50 µM), supporting electrolyte: Britton-Robinson buffer, pH 7.4. The flavonolignans analyzed were dissolved in methanol as a stock solution of 1 mg mL^−1 (stored in a fridge in the dark), and diluted with the supporting electrolyte and/or 0.2 M acetate buffer (pH 5) for in situ and/or ex situ voltammetry. Ex situ a.c. voltammetry (out-of-phase) was carried out with a hanging mercury drop electrode (HMDE) according to the previously published paper. In this case, the flavonolignans (50 µM) were adsorbed from 0.2 M acetate buffer (pH 5) for 30 s. For current responses and potentials (Ep), the standard deviations (S.D.) were less than ±3.55% and ±3 mV for all experiments, respectively.

The nature of data set [2]: DPPH radical scavenging assay. Particulars: for DPPH [% of inhibition]: 33 µM test compound, n = 4, absorbance at 517 nm after 30 min; for IC50: 20 µM DPPH, 30 min. Format: biochemical. As to the method:
Antiradical activity was evaluated spectrophotometrically as the ability of the tested substances to reduce the 1,1-diphenyl-2-picrylhydrazyl (DPPH) radical as described previously with minor modifications. Briefly, a solution of the tested substance (10 µL, final concentration 0–540 µM) were mixed with a freshly prepared methanolic DPPH solution (290 µL, final concentration 20 µM) in a microtiter plate well. After 30 min, absorbance at 517 nm was measured, percentages of inhibition were calculated using the negative control and for selected compounds the IC50 values were obtained from the inhibition curves.
A general note: Loss of DPPH colour is used to gauge radical scavenging.

Data set [3] relates to mouse fibroblasts (BALB/c 3T3). Kind of data set: Cytotoxicity, MTT test, BALB/c 3T3. In kind it is cell-based. Particulars: BALB/c3T3, 24 h incubation, read-out: IC50 viability (MTT-reducing ability) BALB/c 3T3. The procedure: (§1) All the cells were cultured in a humidified atmosphere with 5% (v/v) CO2 at 37 °C and subcultured before conﬂuence. Human Umbilical Vein Endothelial Cells (HUVEC) were isolated from umbilical cords of healthy non-smoker women (18–35 years) as described previously, cultivated in gelatin-coated flasks in EGM and used in passages 2–6. Primary Normal human Adult epidermal Keratinocytes (NAK) were isolated from normal skin obtained from excessive tissue removed during abdominoplasty or mammoplasty of healthy adult patients as described in [36, 50], cultivated in EpiLife medium with the addition of HKGS. Mouse fibroblasts (BALB/c 3T3 cells) were purchased from the European Collection of Cell Cultures (ECACC, Salisbury, UK) and were grown in DMEM supplemented with heat-inactivated FCS (5%, v/v) and newborn FCS, streptomycin […] and glutamine (4 mM). Hepatocyte carcinoma HepG2 cells (No. 85011430, ECACC) were cultured at 37 °C in DMEM supplemented with 2 mM L-glutamine, 1% non-essential amino acids, 100 U/mL penicillin, […] and 10% fetal bovine serum (Invitrogen, Carlsbad, CA, USA).
(§2) The cells were plated into 96-well cell culture plates and grown to near confluence. The tested compounds were placed in the respective fresh medium in serial dilutions (100 µL/well) and incubated with the cells for 24 h. After incubation, the medium was removed, the cells were washed with PBS, fresh medium containing 1 mg/mL of MTT was added and the plates were incubated for a further 3 h (37 °C). The resulting formazan was dissolved in 50 µL of 1% NH3 in DMSO, absorbance was read at 540 nm and IC50 values were obtained graphically from the dependence of cell viability on the concentration of the tested compound.
For orientation: Formazan colour is commonly taken as a measure of viable cells.

The subject of a further data set is rat liver microsomes. Kind of data set: Inhibition of microsomal lipid peroxidation induced by tert-butyl hydroperoxide (TBARS). Format: biochemical. Particulars: for IC50: rat liver microsomes, 1 mM tert-butyl hydroperoxide, TBARS. As to the method: Microsomes were prepared from rat liver homogenate as described previously and resuspended in 50 mM Tris-HCl buffer with 100 mM KCl and 0.1 mM EDTA (pH 7.4). The protein concentration in the stock microsomal suspension was determined using the Bradford method to be typically ca 30 mg protein/mL. This stock suspension was stored at −80 °C and diluted to 0.625 mg protein/mL using PBS before use. 0.4 mL of the diluted microsomal suspension was then mixed with the compounds tested (final concentration 10–200 µM in 0.01 mL DMSO) and incubated for 10 min at 37 °C. tert-Butyl hydroperoxide (0.09 mL in PBS; final concentration 1 mM) was then added and the mixture was incubated at 37 °C for 30 min. The products of lipid peroxidation were determined as thiobarbituric acid reactive substances (TBARS): 0.7 mL of […] were added, the mixture was heated (90 °C; 30 min), cooled, centrifuged (10 min; 10,000 rpm; 4 °C) and the absorbance of the supernatant at 535 nm measured. The activity was calculated as the concentration of the tested compound that inhibited the color reaction with thiobarbiturate (without the tested compound) by 50% (IC50).
In general terms: Microsomes from liver hold many membrane-bound enzymes, among them those of drug oxidation.

The nature of data set [4]: Cytotoxicity, MTT test, range over all cells other than NAK. In kind it is cell-based. To be noted: human (HUVEC, HepG2) and mouse (BALB/c 3T3), all cells used other than NAK (HUVEC, BALB/c 3T3, HepG2), read-out: Cytotoxicity IC50, range over cell types. As to the method:
as §1, §2

The subject of data set [5] is human umbilical vein endothelial cells (HUVEC). Kind of data set: Cytotoxicity, MTT test, HUVEC. Format: cell-based. Particulars: 24 h incubation, read-out: IC50 viability (MTT-reducing ability) HUVEC. As to the method:
as §1, §2

For another data set, the system named is HepG2 cells. Put plainly: Cytotoxicity, MTT test, HepG2. Format: cell-based. To be noted: Homo sapiens, 24 h incubation, read-out: IC50 viability (MTT-reducing ability) HepG2. The procedure:
as §1, §2

For data set [6], the system named is normal human adult epidermal keratinocytes (NAK). Put plainly: Cytotoxicity, MTT test, NAK. Format: cell-based. To be noted: Keratinocyte, 24 h incubation, read-out: IC50 viability (MTT-reducing ability) NAK. The procedure: as §1, §2

Where “and” joins values, the source holds several entries; their conditions need not be identical. Identical values can stand only once. Marks after values point to notes of the source that are not given here.

For the compound `COc1cc([C@H]2Oc3cc([C@H]4Oc5cc(OCc6ccc(COc7cc(O)c8c(c7)O[C@H](c7ccc9c(c7)O[C@H](c7ccc(O)c(OC)c7)[C@@H](CO)O9)[C@@H](O)C8=O)cc6)cc(O)c5C(=O)[C@@H]4O)ccc3O[C@@H]2CO)ccc1O` [Compound 8, (2R,2'R,3R,3'R)-7,7'-((1,4-Phenylenebis(methylene))bis(oxy))bis(3,5-dihydroxy-2-((2R,3R)-3-(4-hydroxy-3-methoxyphenyl)-2-(hydroxymethyl)-2,3-dihydrobenzo[b][1,4]dioxin-6-yl)chroman-4-one)], in data set [1], the “Oxidation potential Ep1” value was 0.56 V and the “Oxidation potential Ep2” value stood at 0.81 V. Further, in data set [2], the “DPPH [% of inhibition]” value is listed as 8.5 ± 3.7 ^a %.

Consider `COc1cc([C@@H]2Oc3cc([C@H]4Oc5cc(OCc6ccc(COc7cc(O)c8c(c7)O[C@H](c7ccc9c(c7)O[C@@H](c7ccc(O)c(OC)c7)[C@H](CO)O9)[C@@H](O)C8=O)cc6)cc(O)c5C(=O)[C@@H]4O)ccc3O[C@H]2CO)ccc1O` [Compound 9, (2R,2'R,3R,3'R)-7,7'-((1,4-Phenylenebis(methylene))bis(oxy))bis(3,5-dihydroxy-2-((2S,3S)-3-(4-hydroxy-3-methoxyphenyl)-2-(hydroxymethyl)-2,3-dihydrobenzo[b][1,4]dioxin-6-yl)chroman-4-one)], for which, in data set [1], the “Oxidation potential Ep1” value came to 0.57 V and the “Oxidation potential Ep2” value came to 0.83 V. For the same compound, the “DPPH [% of inhibition]” value in data set [2] is reported as 8.9 ± 4.0 ^a %.

As for `COc1cc([C@H]2Oc3cc([C@H]4Oc5cc(O)cc(O)c5C(=O)[C@@H]4O)ccc3O[C@@H]2COC(=O)CCCCCCCCCCC(=O)OC[C@H]2Oc3ccc([C@H]4Oc5cc(O)cc(O)c5C(=O)[C@@H]4O)cc3O[C@@H]2c2ccc(O)c(OC)c2)ccc1O` [Compound 3, bis(((2R,3R)-3-(4-Hydroxy-3-methoxyphenyl)-6-((2R,3R)-3,5,7-trihydroxy-4-oxochroman-2-yl)-2,3-dihydrobenzo[b][1,4]dioxin-2-yl)methyl) dodecanedioate], the IC50 was 23.5 ± 5.6 µM in data set [3]; 34 ± 4.3 µM in the data set with rat liver microsomes; 7.6 ± 1.9 µM in data set [5]; 137 ± 7.5 µM in data set [2]; 51.8 ± 5.9 µM in the data set on HepG2 cells; greater than 200 µM in data set [6]. Also, in the data set on rat liver microsomes (stated jointly for DPPH scavenging and microsomal lipid peroxidation tests), the “Activity relative to the parent molecule 1a, microsomal lipid peroxidation” value is recorded as “approximately 1.6 times”. Besides, the IC50 at 24 h in data set [4] lay in the range of 8 to 44 µM. For the same compound, the “Oxidation potential Ep1” value in data set [1] came out at 0.56 V. Moreover, the “Oxidation potential Ep2” value in data set [1] came out at 0.83 V. Further, in data set [1] (ex situ (adsorptive transfer) SWV, open circuit potential), the “Adsorption onto the electrode” value is “strictly limited and practically impossible”. The “DPPH [% of inhibition]” value in data set [2] is recorded as 7.1 ± 2.8 ^a %.

Regarding `COc1cc(C2Oc3cc([C@H]4Oc5cc(OCc6cccc(COc7cc(O)c8c(c7)O[C@H](c7ccc9c(c7)OC(c7ccc(O)c(OC)c7)C(CO)O9)[C@@H](O)C8=O)c6)cc(O)c5C(=O)[C@@H]4O)ccc3OC2CO)ccc1O` (stereo partly drawn) [Compound 11, (2R,2'R,3R,3'R)-7,7'-((1,3-Phenylenebis(methylene))bis(oxy))bis(3,5-dihydroxy-2-(3-(4-hydroxy-3-methoxyphenyl)-2-(hydroxymethyl)-2,3-dihydrobenzo[b][1,4]dioxin-6-yl)chroman-4-one)], in data set [1], the “Oxidation potential Ep1” value turned out to be 0.52 V and the “Oxidation potential Ep2” value is recorded as 0.87 V. The “DPPH [% of inhibition]” value in data set [2] is on record as 10.7 ± 3.1 ^a %.

Consider `COc1cc(C2Oc3cc([C@H]4Oc5cc(OCc6ccc(COc7cc(O)c8c(c7)O[C@H](c7ccc9c(c7)OC(c7ccc(O)c(OC)c7)C(CO)O9)[C@@H](O)C8=O)cc6)cc(O)c5C(=O)[C@@H]4O)ccc3OC2CO)ccc1O` (stereo partly drawn) [Compound 10, (2R,2'R,3R,3'R)-7,7'-((1,4-Phenylenebis(methylene))bis(oxy))bis(3,5-dihydroxy-2-(3-(4-hydroxy-3-methoxyphenyl)-2-(hydroxymethyl)-2,3-dihydrobenzo[b][1,4]dioxin-6-yl)chroman-4-one)], for which, in data set [1], the “Oxidation potential Ep1” value is on record as 0.56 V and the “Oxidation potential Ep2” value was 0.80 V. Besides, in data set [2], the “DPPH [% of inhibition]” value is 8.1 ± 3.4 ^a %.

With `COc1cc([C@H]2Oc3cc([C@H]4Oc5cc(O)cc(O)c5C(=O)[C@@H]4O)ccc3O[C@@H]2CO)ccc1O` [Compound 1a, silybin A], the IC50 in data set [3] was 131 ± 8 µM; with rat liver microsomes it was 53.7 ± 6.1 µM; in data set [5], 57.8 ± 3.6 µM; in data set [2] it was 225 ± 9.4 µM; in the data set with HepG2 cells it was 165 ± 8.1 µM; in data set [6], greater than 200 µM. Also, the IC50 at 24 h in data set [4] lay within 60 to 166 µM. For the same compound, in data set [2], the “DPPH [% of inhibition]” value is given as 6.6 ± 1.7 ^a %.

In the case of `COc1cc(C2Oc3cc(-c4oc5cc(O)cc(O)c5c(=O)c4O)ccc3OC2CO)ccc1O` (stereo not drawn) [Compound 6, 2,3-Dehydrosilybin], the IC50 in data set [3] was 11.9 ± 3 µM; in the data set on rat liver microsomes, 14.5 ± 0.73 µM; in data set [5] it was 20.9 ± 4.6 µM; in data set [2] it was 6.43 ± 0.3 µM; in the data set on HepG2 cells, 58.4 ± 9 µM; in data set [6] it was greater than 200 µM. Besides, in data set [4], the IC50 at 24 h lay in the range of 12 to 59 µM. For the same compound, the “Oxidation potential Ep1” value in data set [1] stood at 0.54 V. Further, the “Oxidation potential Ep2” value in data set [1] turned out to be 0.92 V. Besides, in data set [2] (33 µM), the “DPPH [% of inhibition]” value was 83% and 82.9 ± 0.2 ^b %.
